According to PMC7275090, “Mode of action of teixobactins in cellular membranes” (Nature Communications, 2020):
Bridge positions count the residues as written; N and C are the ends. Square brackets hold non-standard residues; d marks the D form. Ends that are not written are not given here. d(aIle) = CC[C@H](C)[C@@H](N)C(=O)O; dNMeF = CN[C@H](Cc1ccccc1)C(=O)O

Tests used:
[1] = Isothermal titration calorimetry: LUVs containing Lys-Lipid II titrated into [R4L10]-teixobactin; type: binding; details: neutral DOPC membranes, LUVs 2% (mol/mol) Lys-Lipid II, citrate phosphate buffer pH ~6, 37 °C, 65 μM peptide in cell; read-out: equilibrium dissociation constant Kd
Description: Preparation of liposomes: For ITC measurements large unilamellar vesicles (LUVs) containing Lys-Lipid II were prepared by incorporating 2% (mol/mol) of Lys-Lipid II in DOPC from the stock solution. The lipids were dried by nitrogen stream and hydrated with 10 mM HEPES, 150 mM NaCl, pH 7.5 buffer to a lipid-phosphate concentration of ~20 mM. LUVs were obtained after 10 rounds of extrusion through 200 nm membrane filters (Whatman Nuclepore, Track-Etch Membranes). The liposomes were dialysed to citrate phosphate buffer (100 mM NaCl, 50 mM citric acid, 100 mM Na2HPO4, pH ~6). Anionic LUVs were prepared by mixing 25% (mol/mol) DOPG and 75% (mol/mol) DOPC and then incorporating 2% (mol/mol) Lys-Lipid II. All other steps were the same as for zwitterionic LUVs.
ITC was performed with the Low Volume NanoITC (Waters LLC, New Castle, DE, USA) to determine interaction between LUVs and [R4L10]-teixobactin. [R4L10]-teixobactin was diluted in a citrate phosphate buffer (100 mM NaCl, 50 mM citric acid, 100 mM Na2HPO4, pH ~6) to a final concentration of 65 μM. Samples were degassed before use. The chamber was filled with 164 μL of [R4L10]-teixobactin, and the LUVs were titrated into the chamber at a rate of 1.96 μL/300 s with a stirring rate of 300 rpm. Experiments were performed at 37 °C and analysed using the Nano Analyse Software (Waters LLC). […]

[2] = ssNMR 15N T1rho relaxation (dynamics of bound teixobactin), mDAP-Lipid II; details: 950 MHz, 60 kHz MAS
Description: (§1) Relaxation studies: ^1H-detected ^15N T1rho relaxation experiments were carried out at 950 and 700 MHz magnetic field, respectively, using 60 kHz MAS[51]. The ^15N transverse magnetization decay was probed with a ^15N spinlock field of 17.5 kHz. For the bulk, we measured the intensity of the most intense signal at ~8.80 ^1H ppm. T1rho trajectories were fit to single exponentials.
(§2) Lipid I or II-doped multi-laminar vesicle preparations: DOPC or DOPG lipids were mixed with Lipid I or II in 1:1 MeOH:CHCl3 at the final Lipid I or II molar ratio (0–4 mol%/mol). The mixtures were dried and the lipid films were hydrated by vortexing with 2 mL of a teixobactin solution in 40 mM phosphate, 25 mM NaCl, pH 7.0.
(§3) SSNMR samples: MLVs were collected by centrifugation (20,000×g) and loaded into ssNMR rotors. For 3.2 mm rotors, we used 800 nmol of antibiotic with unlabelled Lipid II or I, while we used 400 nmol with labelled Lipid II. For 1.3 mm rotors, samples contained 200 nmol of antibiotic for unlabelled Lipid II or I, while we used 100 nmol for labelled Lipid II. For all ssNMR samples, we used 4 mol%/mol Lipid II or I in the MLVs.

[3] = ssNMR 15N T1rho relaxation (dynamics of bound teixobactin), Lys-Lipid I; details: bound to Lys-Lipid I in DOPC (Lys-LI PC), 950 MHz, 60 kHz MAS
Description: as §1, §2, §3

[4] = 2D 15N1H ssNMR of bound teixobactin, mDAP-Lipid II vs Lys-Lipid II; type: binding; details: DOPC liposomes
Description: 1D, 2D, and 3D ^1H-detected experiments were performed at 60 kHz MAS frequency using magnetic fields of 16.4, 18.8, and 22.2 T (700, 800, and 950 MHz ^1H-frequency) at temperatures of 305 K. All ^1H-detected experiments were dipolar-based. PISSARRO low-power decoupling[47] was used during detection periods. 2D ^13C^13C spin diffusion experiments were performed with PARISxy[48] recoupling at 950 MHz and 15.5, 17, or 18 kHz MAS frequency at 270 K temperature using mixing times of 25–1000 ms. SPINAL64[49] was used in detection periods. The 2D scalar ^13C^13C TOBSY[50] experiment was acquired at 950 MHz with 8 kHz MAS at 295 K temperature with 6 ms ^13C–^13C magnetization transfer time. Chemical shift assignments were performed using standard ^1H-detected 3D CANH and CONH experiments[36],[51] in combination with 2D ^13C^13C PARISxy[48] experiments with different magnetization transfer times (see Supplementary Tables 1 and 2). DNP-enhanced 2D ^13C^13C spin diffusion (20 ms mixing time) ssNMR experiments[52] were carried out using a 263 GHz microwave frequency, 400 MHz ^1H frequency setup (Bruker Biospin) at 100 K temperature and 8.5 kHz MAS.
Lipid I or II-doped multi-laminar vesicle preparations: DOPC or DOPG lipids were mixed with Lipid I or II in 1:1 MeOH:CHCl3 at the final Lipid I or II molar ratio (0–4 mol%/mol). […]

[5] = 31P and 2D 1H31P ssNMR of pyrophosphate binding interface; details: membranes
Description: Structural studies: To probe intermolecular contacts between ^13C,^15N-labelled [R4L10]-teixobactin molecules bound to unlabelled (^12C,^14N) Lipid II, we ran 2D ^13C^13C PARIS experiments with magnetization transfer times of 50, 300, 600, and 1000 ms at 950 MHz and 15.5 kHz MAS. To probe interfacial contacts between ^13C,^15N-labelled [R4L10]-teixobactin and ^13C,^15N-labelled Lipid II, we ran 2D ^13C^13C PARIS experiments with magnetization transfer times of 25, 50, 600, and 1000 ms at 950 MHz and 18 kHz MAS. 1D ^31P CP experiments were acquired at 500 MHz with 12 kHz MAS. The 2D ^1H^31P experiment was acquired at 800 MHz magnetic field and 60 kHz MAS using 1.75 ms CP transfer from ^1H to ^31P.
as §3

[6] = Mobility-edited ssNMR: membrane topology of Lipid II-bound teixobactin; details: 2D 1H(1H)13C, 700 MHz, 300 K
Description: Topological studies: The mobility-edited 2D ^1H(^1H)^13C experiment[22] was performed at 700 MHz with 16.5 kHz MAS at 300 K temperature using a T2 relaxation filter of 2.5 ms. After dephasing of the rigid signals, magnetization from mobile lipid and water molecules was transferred to the rigid antibiotic with 5 ms ^1H–^1H mixing, and subsequently transferred to ^13C nuclei of [R4L10]-teixobactin with a short (200 μs) cross-polarization step.

[7] = bound to mDAP-Lipid II in DOPC (DAP-LII_PC)
[8] = bound to mDAP-Lipid II in DOPG (DAP-LII_PG)

For “D-Arg4-Leu10-teixobactin ([dNMeF]IS[dR][d(aIle)]IS[dT]ALI; ester 8-C; also: 13C,15N labels at Ile2, Ser3, Ile6, Ser7 and one Ala (residue not fully stated)) [[R4L10]-teixobactin, teixobactin analogue in which D-Gln4 and L-allo-enduracididine10 are replaced by D-Arg4 and L-Leu10]”, the Kd [1] was 0.17 µM, the “Bulk 15N R1rho” value [2, 7] was 22.15 s⁻¹ and the “Bulk 15N T1rho” value [2, 7] was 45.14 ms. For the same substance, the “Bulk 15N R1rho” value [2, 8] was 36.17 s⁻¹, the “Bulk 15N T1rho” value [2, 8] was 27.65 ms and the “Bulk 15N R1rho” value [3] was 21.70 s⁻¹. The “Bulk 15N T1rho” value [3] was 46.09 ms, the “ssNMR spectra bound to Lys-Lipid II vs mDAP-Lipid II” value [4] was “gave the same ssNMR spectra” and the “coordination of Lipid II pyrophosphate” value [5] was “directly coordinate the pyrophosphate”. For the same substance, the “membrane localization of Lipid II-bound peptide” value [6] was “localizes at the water–membrane interface with the non-polar residues Ile2 and Ile6 partitioned in the bilayer”.
